Results reported in patent US10508077B2 (FORMA Therapeutics, Inc., priority 2015, dated 2019).
pIC50: −log10 of the molar value.

Biological target: T1, Full length human recombinant HDAC8 protein (Homo sapiens, UniProt Q9BY41)
T1 construct: Full length human recombinant HDAC8 protein was expressed in baculoviral system; made in house
T1 sequence (Q9BY41 1-377): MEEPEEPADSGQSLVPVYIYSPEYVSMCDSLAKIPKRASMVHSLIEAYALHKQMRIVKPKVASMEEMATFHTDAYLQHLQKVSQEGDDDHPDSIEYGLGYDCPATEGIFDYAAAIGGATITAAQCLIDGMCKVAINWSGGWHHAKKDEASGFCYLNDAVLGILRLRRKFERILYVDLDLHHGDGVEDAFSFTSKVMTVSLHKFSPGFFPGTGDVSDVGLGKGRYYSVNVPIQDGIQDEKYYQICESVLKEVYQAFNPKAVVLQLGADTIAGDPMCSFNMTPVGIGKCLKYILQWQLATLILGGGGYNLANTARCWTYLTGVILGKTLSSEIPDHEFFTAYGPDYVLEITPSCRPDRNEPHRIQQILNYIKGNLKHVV
Assay: In vitro histone deacetylase assay: enzymatic HDAC8 assay, electrophoretic mobility shift
Type: biochemical
Details: substrate RHKK(Ac)-NH2, 1 nM enzyme, compounds listed under IC50 range headings
How it was run: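 Readout was microfluidic mobility-shift separation of deacetylated product from fluorescent RHKK(Ac)-NH2 substrate (2 µM), after reaction with 1 nM recombinant full-length human HDAC8 at 25 °C, pH 7.5, stopped with SDS. Twelve 3-fold-spaced concentrations tested; product/sum ratios normalized to controls and fitted with a 4-parameter model for IC50.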

| pIC50 | SMILES |
| --- | --- |
| > 6.00 | O=C(/C=C/c1ccccc1N1CCC(NC(=O)CCC(F)(F)F)CC1)NO [Example I-130, (E)-4,4,4-trifluoro-N-(1-(2-(3-(hydroxyamino)-3-oxoprop-1-en-1-yl)phenyl)piperidin-4-yl)butanamide] |
| > 6.00 | CCSCC(=O)NC1CCN(c2ccccc2/C=C/C(=O)NO)CC1 [Example I-131] |
| > 6.00 | O=C(/C=C/c1ccccc1N1CCC(NC(=O)c2cccnc2)CC1)NO [Example I-132] |
| > 6.00 | CNc1ccc(C(=O)NC2CCN(c3ccccc3/C=C/C(=O)NO)CC2)cc1 [Example I-133, (E)-N-(1-(2-(3-(hydroxyamino)-3-oxoprop-1-en-1-yl)phenyl)piperidin-4-yl)-4-(methylamino)benzamide] |
| > 6.00 | CS(=O)(=O)N1CCC(CC(=O)NC2CCN(c3ccccc3/C=C/C(=O)NO)CC2)CC1 [Example I-135, (E)-N-hydroxy-3-(2-(4-(2-(1-(methylsulfonyl)piperidin-4-yl)acetamido)piperidin-1-yl)phenyl)acrylamide] |
| > 6.00 | CS(=O)(=O)CCCC(=O)NC1CCN(c2ccccc2/C=C/C(=O)NO)CC1 [Example I-136, (E)-N-(1-(2-(3-(hydroxyamino)-3-oxoprop-1-en-1-yl)phenyl)piperidin-4-yl)-4-(methylsulfonyl)butan-amide] |
| > 6.00 | O=C(/C=C/c1ccccc1N1CCC(NC(=O)CCN2CCCC2=O)CC1)NO [Example I-137, (E)-N-hydroxy-3-(2-(4-(3-(2-oxopyrrolidin-1-yl)propanamido)piperidin-1-yl)phenyl)acrylamide] |
| > 6.00 | O=C(/C=C/c1ccccc1N1CCC(NC(=O)CN2CCS(=O)(=O)CC2)CC1)NO [Example I-138, (E)-3-(2-(4-(2-(1,1-dioxidothiomorpholino)acetamido)piperidin-1-yl)phenyl)-N-hydroxyacrylamide] |
| > 6.00 | COc1cc(CC(=O)NC2CCN(c3ccccc3/C=C/C(=O)NO)CC2)ccc1O [Example I-139, (E)-N-hydroxy-3-(2-(4-(2-(4-hydroxy-3-methoxyphenyl)acetami-do)piperidin-1-yl)phenyl)acrylamide] |
| > 6.00 | O=C(/C=C/c1ccccc1N1CCC(NC(=O)C2Cc3ccccc3C2)CC1)NO [Example I-140, (E)-N-(1-(2-(3-(hydroxyamino)-3-oxoprop-1-en-1-yl)phenyl)piperidin-4-yl)-2,3-dihydro-1H-indene-2-carboxamide] |
| > 6.00 | Cc1ccccc1Oc1ncccc1C(=O)NC1CCN(c2ccccc2/C=C/C(=O)NO)CC1 [Example I-141, (E)-N-(1-(2-(3-(hydroxyamino)-3-oxoprop-1-en-1-yl)phenyl)piperdin-4-yl)-2-(o-tolyloxy)nicotinamide] |
| > 6.00 | O=C(/C=C/c1ccccc1N1CCC(NC(=O)C2CCC(F)(F)CC2)CC1)NO [Example I-142, (E)-4,4-difluoro-N-(1-(2-(3-(hydroxyamino)-3-oxoprop-1-en-1-yl)phenyl)piperidin-4-yl)cyclohexane-1-carboxamide] |
| > 6.00 | CC1(CCC(=O)NC2CCN(c3ccccc3/C=C/C(=O)NO)CC2)CC1 [Example I-143, (E)-N-hydroxy-3-(2-(4-(3-(1-methylcyclopropyl)propan-amido)piperidin-1-yl)phenyl)acrylamide] |
| > 6.00 | CN(CC(=O)NC1CCN(c2ccccc2/C=C/C(=O)NO)CC1)S(C)(=O)=O [Example I-144, (E)-N-hydroxy-3-(2-(4-(2-(N-methylmethylsulfonamido)acetamido)piperidin-1-yl)phenyl)acrylamide] |
| > 6.00 | O=C(/C=C/c1ccccc1N1CCC(NC(=O)c2cnn3c2OCCC3)CC1)NO [Example I-145, (E)-N-(1-(2-(3-(hydroxyamino)-3-oxoprop-1-en-1-yl)phenyl)piperidin-4-yl)-6,7-dihydro-5H-pyrazolo[5,1-b][1,3]oxazine-3-carboxamide] |
| > 6.00 | O=C(/C=C/c1ccccc1N1CCC(NC(=O)CC23CCCN2CCC3)CC1)NO [Example I-146] |
| > 6.00 | O=C(/C=C/c1ccccc1N1CCC(NC(=O)c2ccc3cnccc3n2)CC1)NO [Example I-147, (E)-N-(1-(2-(3-(hydroxyamino)-3-oxoprop-1-en-1-yl)phenyl)piperidin-4-yl)-1,6-naphthyridine-2-carboxamide] |
| > 6.00 | O=C(/C=C/c1ccccc1N1CCC(NC(=O)C2CC(F)(F)C2)CC1)NO [Example I-149, (E)-3,3-difluoro-N-(1-(2-(3-(hydroxyamino)-3-oxoprop-1-en-1-yl)phenyl)piperidin-4-yl)cyclobutane-1-carboxamide] |
| > 6.00 | O=C(/C=C/c1ccccc1N1CCC(NC(=O)CC2CC2)CC1)NO [Example I-150] |
| > 6.00 | O=C(/C=C/c1ccccc1N1CCC(NC(=O)CC2CCS(=O)(=O)CC2)CC1)NO [Example I-151, (E)-3-(2-(4-(2-(1,1-dioxidotetrahydro-2H-thiopyran-4-yl)acetamido)piperidin-1-yl)phenyl)-N-hydroxyacrylamide] |

| pIC50 | SMILES |
| --- | --- |
| > 6.00 | O=C(/C=C/c1ccccc1N1CCC(NC(=O)CSc2ccccc2)CC1)NO [Example I-152, (E)-N-hydroxy-3-(2-(4-(2-(phenylthio)acetamido)piperidin-1-yl)phenyl)acrylamide] |
| > 6.00 | CC(C)c1ccc(C(=O)NC2CCN(c3ccccc3/C=C/C(=O)NO)CC2)nc1 [Example I-154, (E)-N-(1-(2-(3-(hydroxyamino)-3-oxoprop-1-en-1-yl)phenyl)piperidin-4-yl)-5-isopropylpicolinamide] |
| > 6.00 | O=C(/C=C/c1ccccc1N1CCC(NC(=O)c2cc3ccccc3[nH]2)CC1)NO [Example I-155] |
| > 6.00 | CSc1ccc(CC(=O)NC2CCN(c3ccccc3/C=C/C(=O)NO)CC2)cc1 [Example I-156] |
| > 6.00 | CC(C)CCC(=O)NC1CCN(c2ccccc2/C=C/C(=O)NO)CC1 [Example I-157, (E)-N-(1-(2-(3-(hydroxyamino)-3-oxoprop-1-en-1-yl)phenyl)piperidin-4-yl)-4-methylpentanamide] |
| > 6.00 | Cc1nc(CC(=O)NC2CCN(c3ccccc3/C=C/C(=O)NO)CC2)c(C)s1 [Example I-158, (E)-3-(2-(4-(2-(2,5-dimethylthiazol-4-yl)acetamido)piperidin-1-yl)phenyl)-N-hydroxyacrylamide] |
| > 6.00 | O=C(/C=C/c1ccccc1N1CCC(NC(=O)c2ccoc2)CC1)NO [Example I-159] |
| > 6.00 | O=C(/C=C/c1ccccc1N1CCC(NC(=O)c2ccc(-n3cccc3)nc2)CC1)NO [Example I-160] |
| > 6.00 | O=C(/C=C/c1ccccc1N1CCC(NC(=O)c2ccc3[nH]nnc3c2)CC1)NO [Example I-161] |
| > 6.00 | CN(C)Cc1ccccc1CN1CCN(c2ccccc2/C=C/C(=O)NO)CC1 [Example I-162, (E)-3-(2-(4-(2-((dimethylamino)methyl)benzyl)piperazin-1-yl)phenyl)-N-hydroxyacrylamide] |
| > 6.00 | O=C(/C=C/c1ccccc1N1CCN(Cc2ccc(F)cc2)CC1)NO [Example I-163, (E)-3-(2-(4-(4-fluorobenzyl)piperazin-1-yl)phenyl)-N-hydroxyacrylamide] |
| > 6.00 | O=C(/C=C/c1ccccc1N1CCN(Cc2ccccc2F)CC1)NO [Example I-164, (E)-3-(2-(4-(2-fluorobenzyl)piperazin-1-yl)phenyl)-N-hydroxyacrylamide] |
| > 6.00 | O=C(/C=C/c1ccccc1N1CCN(Cc2ccc(C(F)(F)F)nc2)CC1)NO [Example I-165, (E)-N-hydroxy-3-(2-(4-((6-(trifluoromethyl)pyridin-3-yl)methyl)piperazin-1-yl)phenyl)acrylamide] |
| > 6.00 | O=C(/C=C/c1ccccc1N1CCN(CCCc2ccccc2)CC1)NO [Example I-166, (E)-N-hydroxy-3-(2-(4-(3-phenylpropyl)piperazin-1-yl)phenyl)acrylamide] |
| > 6.00 | O=C(/C=C/c1ccccc1N1CCN(CC2CCOC2)CC1)NO (stereo not shown) [Example I-167, (E)-N-hydroxy-3-(2-(4-((tetrahydrofuran-3-yl)methyl)piperazin-1-yl)phenyl)acrylamide] |
| > 6.00 | O=C(/C=C/c1ccccc1N1CCN(Cc2ccccn2)CC1)NO [Example I-168, (E)-N-hydroxy-3-(2-(4-(pyridin-2-ylmethyl)piperazin-1-yl)phenyl)acrylamide] |
| > 6.00 | COc1cncc(CN2CCN(c3ccccc3/C=C/C(=O)NO)CC2)c1 [Example I-169, (E)-N-hydroxy-3-(2-(4-((5-methoxypyridin-3-yl)methyl)piperazin-1-yl)phenyl)acrylamide] |
| > 6.00 | O=C(/C=C/c1ccccc1N1CCN(Cc2cccc(C(F)(F)F)c2)CC1)NO [Example I-171, (E)-N-hydroxy-3-(2-(4-(3-(trifluoromethyl)benzyl)piperazin-1-yl)phenyl)acrylamide] |
| > 6.00 | COc1ccc(CN2CCN(c3ccccc3/C=C/C(=O)NO)CC2)cc1 [Example I-172, (E)-N-hydroxy-3-(2-(4-(4-methoxybenzyl)piperazin-1-yl)phenyl)acrylamide] |
| > 6.00 | O=C(/C=C/c1ccccc1N1CCN(Cc2ccc3c(c2)OC(F)(F)O3)CC1)NO [Example I-173, (E)-3-(2-(4-((2,2-difluorobenzo[d][1,3]dioxol-5-yl)methyl)piperazin-1-yl)phenyl)-N-hydroxyacrylamide] |
